Assay results taken from patent US11214565B2, “Compound, compositions, and methods” (Denali Therapeutics Inc., priority 2015, dated 2022).

Target: LRRK2 G2019S enzyme (Homo sapiens (Human), UniProt Q5S007, G2019S)
Assay: LRRK2 G2019S TR-FRET biochemical kinase assay (LRRKtide substrate)
Conditions: Table A-2; 5 nM LRRK2, 134 μM ATP, 60 minute reaction, 23° C.
Procedure: LRRK2 G2019S enzyme, Substrate (LRRKtide), ATP, TR-FRET dilution buffer, pLRRKtide antibody, 384-well assay plate, and DMSO.
50 mM Tris pH 7.5, 10 mM MgCl2, 1 mM EGTA, 0.01% Brij-35, 2 mM DTT, 5 nM LRRK2, 134 μM ATP, 60 minute reaction time, 23° C. reaction temperature, and 10 μL total reaction volume.
1×TR-FRET dilution buffer, 10 mM EDTA, 2 nM antibody, 23° C. reaction temperature, and 10 μL total reaction volume.
Compound solutions were prepared by initially diluting to 1 mM with DMSO. 35 μL of reference compound solution, 35 μL of test compound solution, and 35 μL HPE were successively added to the source plate (384-well assay plate, Labcyte). The plates were centrifuged at 2500 rpm for 1 minute and sealed in foil. POD was used to perform a 3.162 fold serial dilution and 100 nL of reference compound solution, test compound solution, HPE and ZPE were transferred to assay plates. The assay plate was centrifuged at 2500 rpm for 1 minute, and sealed with foil.
To perform the enzyme reaction, 5 μL of LRRKtide substrate and kinase mixture in assay buffer was added to all wells of the assay plate. The plate was centrifuged to concentrate the mixture at the bottom of the wells. The assay plate was incubated at 23° C. for 20 minutes. Following incubation, 5 μL of 2×ATP in assay buffer was added to each well, and plates were centrifuged to concentrate the mixture at the bottom of the wells. The plate was incubated at 23° C. for 60 minutes.
To perform the detection of the reaction, EDTA completely mixed in TR-FRET dilution buffer was added to antibody reagent. 10 μL of detection reagent was added to all wells of each well of the assay-plate and the plate was centrifuged to concentrate the mixture at the bottom of the wells. The plate was then incubated at 23° C. for 60 minutes. Plates were read on Perkin Elmer Envision 2104 instrument in TR-FRET mode using a 340 nm excitation filter, 520 nm fluorescence emission filter, and 490 or 495 nm terbium emission filter.
B-2, C2, and D-4 respectively.

Chain of LRRK2 G2019S enzyme (Q5S007 whole entry G2019S): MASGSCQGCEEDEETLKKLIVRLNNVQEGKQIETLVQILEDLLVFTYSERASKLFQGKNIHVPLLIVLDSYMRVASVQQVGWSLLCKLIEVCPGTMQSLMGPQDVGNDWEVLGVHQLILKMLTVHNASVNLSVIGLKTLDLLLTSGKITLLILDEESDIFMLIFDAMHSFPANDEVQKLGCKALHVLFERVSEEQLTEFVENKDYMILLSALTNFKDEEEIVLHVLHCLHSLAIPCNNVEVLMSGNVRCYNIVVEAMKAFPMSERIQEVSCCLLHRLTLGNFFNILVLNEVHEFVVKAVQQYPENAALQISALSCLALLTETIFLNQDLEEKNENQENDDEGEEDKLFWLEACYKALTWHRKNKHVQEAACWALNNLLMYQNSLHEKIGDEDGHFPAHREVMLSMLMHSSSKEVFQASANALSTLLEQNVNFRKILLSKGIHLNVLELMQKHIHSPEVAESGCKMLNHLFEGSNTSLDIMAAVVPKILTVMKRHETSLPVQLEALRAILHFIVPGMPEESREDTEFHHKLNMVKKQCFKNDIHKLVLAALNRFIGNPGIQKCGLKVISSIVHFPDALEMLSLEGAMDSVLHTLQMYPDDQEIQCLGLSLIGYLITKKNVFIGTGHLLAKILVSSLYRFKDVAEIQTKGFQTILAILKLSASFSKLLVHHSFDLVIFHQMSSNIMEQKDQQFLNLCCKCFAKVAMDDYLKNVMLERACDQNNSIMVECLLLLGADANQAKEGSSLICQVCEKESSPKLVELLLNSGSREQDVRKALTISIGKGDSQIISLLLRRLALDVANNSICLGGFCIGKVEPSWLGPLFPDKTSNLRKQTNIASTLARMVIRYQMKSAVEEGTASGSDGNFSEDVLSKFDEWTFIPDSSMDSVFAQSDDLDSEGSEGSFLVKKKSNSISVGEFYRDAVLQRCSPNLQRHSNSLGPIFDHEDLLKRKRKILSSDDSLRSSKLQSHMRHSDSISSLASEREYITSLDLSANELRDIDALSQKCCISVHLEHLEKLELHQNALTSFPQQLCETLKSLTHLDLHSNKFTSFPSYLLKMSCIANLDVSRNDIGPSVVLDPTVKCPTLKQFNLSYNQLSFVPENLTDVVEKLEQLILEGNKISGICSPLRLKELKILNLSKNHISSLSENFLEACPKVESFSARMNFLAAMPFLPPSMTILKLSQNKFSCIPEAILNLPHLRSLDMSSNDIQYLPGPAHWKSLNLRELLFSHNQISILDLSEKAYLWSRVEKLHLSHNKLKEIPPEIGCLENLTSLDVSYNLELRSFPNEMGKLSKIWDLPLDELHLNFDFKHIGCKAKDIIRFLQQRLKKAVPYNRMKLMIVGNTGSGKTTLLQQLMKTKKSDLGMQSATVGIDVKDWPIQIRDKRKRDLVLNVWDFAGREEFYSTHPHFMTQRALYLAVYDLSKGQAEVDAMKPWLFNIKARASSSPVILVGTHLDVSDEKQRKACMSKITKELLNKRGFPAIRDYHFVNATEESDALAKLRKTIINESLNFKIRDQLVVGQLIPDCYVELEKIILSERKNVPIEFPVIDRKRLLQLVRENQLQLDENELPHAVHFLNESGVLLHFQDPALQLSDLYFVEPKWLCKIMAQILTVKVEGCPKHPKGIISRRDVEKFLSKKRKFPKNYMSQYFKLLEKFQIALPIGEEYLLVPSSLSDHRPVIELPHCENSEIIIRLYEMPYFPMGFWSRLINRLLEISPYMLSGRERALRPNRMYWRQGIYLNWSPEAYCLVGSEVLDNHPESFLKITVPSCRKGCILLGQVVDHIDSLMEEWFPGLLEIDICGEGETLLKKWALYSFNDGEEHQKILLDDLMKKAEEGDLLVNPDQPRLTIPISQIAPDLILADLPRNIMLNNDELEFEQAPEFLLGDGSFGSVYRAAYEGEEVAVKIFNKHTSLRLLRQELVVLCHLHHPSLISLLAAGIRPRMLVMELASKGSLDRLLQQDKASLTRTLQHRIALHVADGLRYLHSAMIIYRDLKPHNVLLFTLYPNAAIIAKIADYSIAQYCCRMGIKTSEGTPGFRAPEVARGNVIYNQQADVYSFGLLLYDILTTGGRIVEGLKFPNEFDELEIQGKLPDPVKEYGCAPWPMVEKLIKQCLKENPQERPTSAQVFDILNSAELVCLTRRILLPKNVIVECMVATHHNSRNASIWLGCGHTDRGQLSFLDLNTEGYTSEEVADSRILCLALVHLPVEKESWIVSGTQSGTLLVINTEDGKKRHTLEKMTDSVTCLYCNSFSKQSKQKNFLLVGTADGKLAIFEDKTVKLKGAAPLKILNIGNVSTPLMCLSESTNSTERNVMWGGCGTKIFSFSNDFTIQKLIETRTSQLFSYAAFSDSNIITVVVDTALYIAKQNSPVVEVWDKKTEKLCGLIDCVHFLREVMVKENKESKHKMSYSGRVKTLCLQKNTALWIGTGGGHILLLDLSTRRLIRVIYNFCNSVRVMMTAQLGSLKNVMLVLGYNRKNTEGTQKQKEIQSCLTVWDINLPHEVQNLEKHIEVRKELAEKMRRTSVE

IC50 [nM] | SMILES
< 30 | Cc1nn(C2(c3ncn(C)n3)CCC2)cc1Nc1ncc(C(F)(F)F)c(C2CC2)n1 [Compound A-41, 4-cyclopropyl-N-[3-methyl-1-[1-(1-methyl-1,2,4-triazol-3-yl)cyclobutyl]pyrazol-4-yl]-5-(trifluoromethyl)pyrimidin-2-amine]
> 60 | Cc1nn(C2(c3ncnn3C)CCC2)cc1Nc1ncc(C(F)(F)F)c(C2CC2)n1 [Compound A-42, 4-cyclopropyl-N-[3-methyl-1-[1-(2-methyl-1,2,4-triazol-3-yl)cyclobutyl]pyrazol-4-yl]-5-(trifluoromethyl)pyrimidin-2-amine]
< 30 | Cc1c(Nc2ncc(Cl)c(C3CC3)n2)cnn1C(CF)CF [Compound A-43, 5-chloro-4-cyclopropyl-N-[1-[2-fluoro-1-(fluoromethyl)ethyl]-5-methyl-pyrazol-4-yl]pyrimidin-2-amine]
< 30 | Cc1nn(C(CF)CF)cc1Nc1ncc(Cl)c(C2CC2)n1 [Compound A-44, 5-chloro-4-cyclopropyl-N-[1-[2-fluoro-1-(fluoromethyl)ethyl]-3-methyl-pyrazol-4-yl]pyrimidin-2-amine]
< 30 | FCC(CF)n1ncc(Nc2ncc(C(F)(F)F)c(C3CC3)n2)c1Cl [Compound A-45, N-[5-chloro-1-[2-fluoro-1-(fluoromethyl)ethyl]pyrazol-4-yl]-4-cyclopropyl-5-(trifluoromethyl)pyrimidin-2-amine]
< 30 | FCC(CF)n1cc(Nc2ncc(C(F)(F)F)c(C3CC3)n2)c(Cl)n1 [Compound A-46, N-[3-chloro-1-[2-fluoro-1-(fluoromethyl)ethyl]pyrazol-4-yl]-4-cyclopropyl-5-(trifluoromethyl)pyrimidin-2-amine]
< 30 | Cc1nn(C2(C#N)CC2)cc1Nc1ncc(C(F)(F)F)c(C2CC2)n1 [Compound A-47, 1-[4-[[4-cyclopropyl-5-(trifluoromethyl)pyrimidin-2-yl]amino]-3-methyl-pyrazol-1-yl]cyclopropanecarbonitrile]
< 30 | F[C@H]1CN(C2COC2)CC[C@@H]1n1ncc(Nc2ncc(C(F)(F)F)c(C3CC3)n2)c1Cl [Compound A-48, N-(5-chloro-1-((3S,4S)-3-fluoro-1-(oxetan-3-yl)piperidin-4-yl)-1H-pyrazol-4-yl)-4-cyclopropyl-5-(trifluoromethyl)pyrimidin-2-amine]
< 30 | CCn1cnc(C(C)(C)n2cc(Nc3ncc(C(F)(F)F)c(C4CC4)n3)c(C)n2)n1 [Compound A-51, 4-cyclopropyl-N-(1-(2-(1-ethyl-1H-1,2,4-triazol-3-yl)propan-2-yl)-3-methyl-1H-pyrazol-4-yl)-5-(trifluoromethyl)pyrimidin-2-amine]
> 60 | Cc1nn(C2(c3ncn(C)n3)CC2)cc1Nc1ncc(C(F)(F)F)c(C2CC2)n1 [Compound A-52, 4-cyclopropyl-N-[3-methyl-1-[1-(1-methyl-1,2,4-triazol-3-yl)cyclopropyl]pyrazol-4-yl]-5-(trifluoromethyl)pyrimidin-2-amine]
< 30 | Cc1nn(C(C)(C)c2ncn(C)n2)cc1Nc1ncc(Br)c(C2CC2)n1 [Compound A-53, 5-bromo-4-cyclopropyl-N-(3-methyl-1-(2-(1-methyl-1H-1,2,4-triazol-3-yl)propan-2-yl)-1H-pyrazol-4-yl)pyrimidin-2-amine]
< 30 | Cc1c(Nc2ncc(C(F)(F)F)c(C3CC3)n2)cnn1Cc1ccn(C)n1 [Compound A-54, 4-cyclopropyl-N-[5-methyl-1-[(1-methylpyrazol-3-yl)methyl]pyrazol-4-yl]-5-(trifluoromethyl)pyrimidin-2-amine]
< 30 | Cc1nn(Cc2ccn(C)n2)cc1Nc1ncc(C(F)(F)F)c(C2CC2)n1 [Compound A-55, 4-cyclopropyl-N-(3-methyl-1-((1-methyl-1H-pyrazol-3-yl)methyl)-1H-pyrazol-4-yl)-5-(trifluoromethyl)pyrimidin-2-amine]
< 30 | Cc1nn(C(C)(C)c2cn(C)cn2)cc1Nc1ncc(C(F)(F)F)c(C2CC2)n1 [Compound A-56, 4-cyclopropyl-N-(3-methyl-1-(2-(1-methyl-1H-imidazol-4-yl)propan-2-yl)-1H-pyrazol-4-yl)-5-(trifluoromethyl)pyrimidin-2-amine]
> 60 | CC(C)(O)Cn1ncc(Nc2ncc(C(F)(F)F)c(C3CC3)n2)c1Cl [Compound A-57, 1-[5-chloro-4-[[4-cyclopropyl-5-(trifluoromethyl)pyrimidin-2-yl]amino]pyrazol-1-yl]-2-methyl-propan-2-ol]
< 30 | Cc1nn(C(C)(C)c2nc[nH]n2)cc1Nc1ncc(C(F)(F)F)c(C2CC2)n1 [Compound A-58, N-(1-(2-(1H-1,2,4-triazol-3-yl)propan-2-yl)-3-methyl-1H-pyrazol-4-yl)-4-cyclopropyl-5-(trifluoromethyl)pyrimidin-2-amine]
30 to 60 | FC(F)(F)c1cnc(Nc2cnn(CC3(CN4CCOCC4)CC3)c2Cl)nc1C1CC1 [Compound A-63, N-[5-chloro-1-[[1-(morpholinomethyl)cyclopropyl]methyl]pyrazol-4-yl]-4-cyclopropyl-5-(trifluoromethyl)pyrimidin-2-amine]
> 60 | Cn1cnc(C(C)(C)n2cc(Nc3ncc(C(F)(F)F)c(C4CC4)n3)c(CO)n2)n1 [Compound A-66]
< 30 | Cc1nn(C(C)(C)c2ccn[nH]2)cc1Nc1ncc(C(F)(F)F)c(C2CC2)n1 [Compound A-67, 4-cyclopropyl-N-[3-methyl-1-[1-methyl-1-(1H-pyrazol-5-yl)ethyl]pyrazol-4-yl]-5-(trifluoromethyl)pyrimidin-2-amine]
< 30 | Cc1c(Nc2ncc(C(F)(F)F)c(C3CC3)n2)cnn1[C@H]1CC2C(C1)[C@H]2c1ncnn1C (stereo partly drawn) [Compound A-68, 4-cyclopropyl-N-(5-methyl-1-((1R,3s,5S,6r)-6-(1-methyl-1H-1,2,4-triazol-5-yl)bicyclo[3.1.0]hexan-3-yl)-1H-pyrazol-4-yl)-5-(trifluoromethyl)pyrimidin-2-amine]
< 30 | Cc1nn([C@H]2CC3C(C2)[C@H]3c2ncn(C)n2)cc1Nc1ncc(C(F)(F)F)c(C2CC2)n1 (stereo partly drawn) [Compound A-69, 4-cyclopropyl-N-(3-methyl-1-((1R,3r,5S,6r)-6-(1-methyl-1H-1,2,4-triazol-3-yl)bicyclo[3.1.0]hexan-3-yl)-1H-pyrazol-4-yl)-5-(trifluoromethyl)pyrimidin-2-amine]
< 30 | Cc1nn([C@H]2CC3C(C2)[C@H]3c2ncnn2C)cc1Nc1ncc(C(F)(F)F)c(C2CC2)n1 (stereo partly drawn) [Compound A-70, 4-cyclopropyl-N-(3-methyl-1-((1R,3s,5S,6r)-6-(1-methyl-1H-1,2,4-triazol-5-yl)bicyclo[3.1.0]hexan-3-yl)-1H-pyrazol-4-yl)-5-(trifluoromethyl)pyrimidin-2-amine]
< 30 | Cc1nn(C(C)(C)c2cn[nH]n2)cc1Nc1ncc(C(F)(F)F)c(C2CC2)n1 [Compound A-71, N-(1-(2-(2H-1,2,3-triazol-4-yl)propan-2-yl)-3-methyl-1H-pyrazol-4-yl)-4-cyclopropyl-5-(trifluoromethyl)pyrimidin-2-amine]
30 to 60 | Cc1nnc(C(C)(C)n2cc(Nc3ncc(C(F)(F)F)c(C4CC4)n3)c(C)n2)o1 [Compound A-74, 4-cyclopropyl-N-(3-methyl-1-(2-(5-methyl-1,3,4-oxadiazol-2-yl)propan-2-yl)-1H-pyrazol-4-yl)-5-(trifluoromethyl)pyrimidin-2-amine]
< 30 | Cc1nn(C(F)(F)c2ncn(C)n2)cc1Nc1ncc(C(F)(F)F)c(C2CC2)n1 [Compound A-75, 4-cyclopropyl-N-[1-[difluoro(1-methyl-1H-1,2,4-triazol-3-yl)methyl]-3-methyl-pyrazol-4-yl]-5-(trifluoromethyl)pyrimidin-2-amine]
> 60 | Cc1nn(C(F)(F)c2ncnn2C)cc1Nc1ncc(C(F)(F)F)c(C2CC2)n1 [Compound A-76, 4-cyclopropyl-N-[1-[difluoro-(2-methyl-1,2,4-triazol-3-yl)methyl]-3-methyl-pyrazol-4-yl]-5-(trifluoromethyl)pyrimidin-2-amine]
< 30 | Cc1nn(C(F)(F)c2nc[nH]n2)cc1Nc1ncc(C(F)(F)F)c(C2CC2)n1 [Compound A-77, 4-cyclopropyl-N-(1-(difluoro(1H-1,2,4-triazol-3-yl)methyl)-3-methyl-1H-pyrazol-4-yl)-5-(trifluoromethyl)pyrimidin-2-amine]
< 30 | Cc1c(Nc2ncc(C(F)(F)F)c(C3CC3)n2)cnn1[C@H]1C[C@H](c2ncnn2C)C1 [Compound A-80, 4-cyclopropyl-N-(5-methyl-1-((1r,3r)-3-(1-methyl-1H-1,2,4-triazol-5-yl)cyclobutyl)-1H-pyrazol-4-yl)-5-(trifluoromethyl)pyrimidin-2-amine]
